Data taken from patent US6579878B1, “Pharmaceutical compositions and methods for use” (priority 2000, dated 2003).

What was measured:
[1] = molecular target: muscle-type nicotinic acetylcholine receptors (Homo sapiens, UniProt P02708+P07510+Q07001); test: Determination of interaction with muscle receptors; format: cell-based; settings: percentage of the maximal activation induced by (S)-(-)-nicotine
Protocol: (§1) The determination of the interaction of the compounds with muscle receptors was carried out in accordance with the techniques described in U.S. Pat. No. 5,597,919 to Dull et al. The maximal activation for individual compounds (Emax) was determined as a percentage of the maximal activation induced by (S)-(−)-nicotine. Reported Emax values represent the amount released relative to (S)-(−)-nicotine on a percentage basis. […] Such preferable compounds have the capability to activate human CNS receptors without activating muscle-type nicotinic acetylcholine receptors. Thus, there is provided a therapeutic window for utilization in the treatment of CNS disorders.

[2] = tested on: ganglia-type nicotinic acetylcholine receptors; test: Determination of interaction with ganglion receptors; format: cell-based; settings: percentage of the maximal activation induced by (S)-(-)-nicotine
Protocol: as §1, with “ganglionic” for “muscle”, “ganglia-type” for “muscle-type”

Rat brain synaptosomes = test: Neurotransmitter release from brain synaptosomes; format: biochemical; settings: in the presence of 10 uM ligand; percentage of release obtained with 10 uM (S)-(-)-nicotine or 300 uM TMA
Protocol: Neurotransmitter release was measured using techniques similar to those previously published (Bencherif M, et al.: JPET 279: 1413-1421,1996).
Rat brain synaptosomes were prepared as follows: Female Sprague Dawley rats (100-200 g) were killed by decapitation after anesthesia with 70% CO2. Brains are dissected, and hippocampus, striatum, and thalamus isolated, and homogenized in 0.32 M sucrose containing 5 mM HEPES pH 7.4 using a glass/glass homogenizer. The tissue was then centrifuged for 1000×g for 10 minutes and the pellet discarded. The supernatant was centrifuged at 12000×g for 20 minutes. The resultant pellet was re-suspended in perfusion buffer (128 mM NaCl, 1.2 mM KH2PO4, 2.4 mM KCl, 3.2 mM CaCl2, 1.2 mM MgSO4, 25 mM HEPES, 1 mM Ascorbic acid, 0.01 mM pargyline HCl and 10 mM glucose pH 7.4) and centrifuged for 15 minutes at 25000×g. The final pellet was resuspended in perfusion buffer and placed in a water bath (37° C.) for 10 minutes. […] The perfusate was collected directly into scintillation vials and released radioactivity was quantified using conventional liquid scintillation techniques. Release of neurotransmitter was determined in the presence of 10 uM of various ligands and was expressed as a percentage of release obtained with a concentration of 10 uM (S)-(−)-nicotine or 300 uM TMA resulting in maximal effects.

muscle-type nicotinic acetylcholine receptors, sequence (P02708 21-457): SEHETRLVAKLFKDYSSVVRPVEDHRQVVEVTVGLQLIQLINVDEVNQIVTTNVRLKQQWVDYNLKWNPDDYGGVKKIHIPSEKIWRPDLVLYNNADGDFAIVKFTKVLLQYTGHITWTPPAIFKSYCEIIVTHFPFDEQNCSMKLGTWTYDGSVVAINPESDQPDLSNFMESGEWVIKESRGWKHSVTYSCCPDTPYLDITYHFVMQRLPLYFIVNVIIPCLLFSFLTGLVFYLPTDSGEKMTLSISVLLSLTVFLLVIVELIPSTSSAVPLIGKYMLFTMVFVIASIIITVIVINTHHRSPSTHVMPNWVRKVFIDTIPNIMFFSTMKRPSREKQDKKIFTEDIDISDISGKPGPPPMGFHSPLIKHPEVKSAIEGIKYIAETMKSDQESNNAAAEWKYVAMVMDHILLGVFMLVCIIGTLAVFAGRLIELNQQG
muscle-type nicotinic acetylcholine receptors, sequence (P11230 24-501 partner): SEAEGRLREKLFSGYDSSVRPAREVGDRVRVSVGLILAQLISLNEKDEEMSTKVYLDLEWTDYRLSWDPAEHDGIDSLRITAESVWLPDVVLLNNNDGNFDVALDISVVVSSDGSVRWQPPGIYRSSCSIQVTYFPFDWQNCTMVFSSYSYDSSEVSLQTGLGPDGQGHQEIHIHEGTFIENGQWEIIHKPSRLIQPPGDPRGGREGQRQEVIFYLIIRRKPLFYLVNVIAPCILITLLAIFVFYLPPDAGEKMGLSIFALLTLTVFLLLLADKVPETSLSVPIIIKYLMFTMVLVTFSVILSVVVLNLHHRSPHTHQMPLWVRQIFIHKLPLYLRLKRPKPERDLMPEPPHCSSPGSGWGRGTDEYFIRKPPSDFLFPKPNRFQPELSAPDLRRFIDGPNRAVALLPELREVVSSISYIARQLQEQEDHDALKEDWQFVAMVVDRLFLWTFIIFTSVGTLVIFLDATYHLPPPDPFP
muscle-type nicotinic acetylcholine receptors, sequence (Q07001 22-517): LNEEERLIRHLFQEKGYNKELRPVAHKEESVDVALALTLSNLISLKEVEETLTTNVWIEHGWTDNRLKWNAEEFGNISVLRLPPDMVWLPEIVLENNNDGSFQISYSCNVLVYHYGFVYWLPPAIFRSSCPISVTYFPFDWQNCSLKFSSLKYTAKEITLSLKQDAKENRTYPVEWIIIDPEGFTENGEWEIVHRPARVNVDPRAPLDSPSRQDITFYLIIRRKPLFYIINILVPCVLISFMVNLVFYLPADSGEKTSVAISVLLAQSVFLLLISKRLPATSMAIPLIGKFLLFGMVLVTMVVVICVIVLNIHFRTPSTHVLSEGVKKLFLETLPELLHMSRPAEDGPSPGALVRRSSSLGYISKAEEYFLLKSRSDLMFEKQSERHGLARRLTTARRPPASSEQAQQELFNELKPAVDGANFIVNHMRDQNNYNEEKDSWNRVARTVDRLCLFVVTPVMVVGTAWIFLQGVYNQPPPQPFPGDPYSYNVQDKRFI
muscle-type nicotinic acetylcholine receptors, sequence (P07510 23-517): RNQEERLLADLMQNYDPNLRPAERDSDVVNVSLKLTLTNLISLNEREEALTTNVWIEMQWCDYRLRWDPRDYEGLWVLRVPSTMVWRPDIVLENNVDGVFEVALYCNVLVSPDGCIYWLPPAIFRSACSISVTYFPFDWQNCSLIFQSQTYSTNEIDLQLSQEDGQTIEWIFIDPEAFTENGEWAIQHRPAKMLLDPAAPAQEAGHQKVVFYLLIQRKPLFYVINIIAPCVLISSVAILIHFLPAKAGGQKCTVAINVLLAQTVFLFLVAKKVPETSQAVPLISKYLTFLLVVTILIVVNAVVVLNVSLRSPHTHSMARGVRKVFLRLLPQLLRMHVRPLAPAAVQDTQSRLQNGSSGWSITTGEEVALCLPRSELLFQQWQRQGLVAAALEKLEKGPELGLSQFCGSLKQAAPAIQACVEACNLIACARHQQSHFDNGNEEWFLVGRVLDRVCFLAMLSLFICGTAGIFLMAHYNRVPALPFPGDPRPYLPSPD

## c1cncc(CC2CC3CCC2N3)c1 (stereo not drawn) [Example 1, 2-((3-pyridyl)methyl)-7-azabicyclo[2.2.1]heptane]
[1]
  Emax: 52%
[2]
  Emax, maximal activation at ganglia-type receptors: 48%
Rat brain synaptosomes
  Emax, neurotransmitter release: 15%
